Where two headings read alike, the source gives them in different places. Peptide text beside a SMILES is read from it.
What was measured:
HDAC8 = target: T1, HDAC8 (Homo sapiens, UniProt Q9BY41); assay: HDAC8 inhibition, full IC50 measurement (Reaction Biology; fluorogenic p53 peptide RHKK(Ac)AMC); format: biochemical; settings: Supp. Table 1
T1 construct: purchased Reaction Biology Corporation (assay run by the CRO)
T1 sequence (Q9BY41 1-377): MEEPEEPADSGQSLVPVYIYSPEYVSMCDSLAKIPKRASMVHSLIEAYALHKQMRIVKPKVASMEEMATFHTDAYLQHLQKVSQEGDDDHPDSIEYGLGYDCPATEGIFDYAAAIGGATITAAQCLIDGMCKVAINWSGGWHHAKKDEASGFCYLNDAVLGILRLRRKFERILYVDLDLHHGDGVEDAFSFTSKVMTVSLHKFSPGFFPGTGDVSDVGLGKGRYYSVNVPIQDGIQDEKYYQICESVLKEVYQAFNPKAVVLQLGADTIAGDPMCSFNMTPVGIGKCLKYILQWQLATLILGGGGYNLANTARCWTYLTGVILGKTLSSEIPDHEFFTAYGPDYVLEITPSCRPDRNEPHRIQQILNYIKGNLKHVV
Procedure: (§1) The assay was performed using 50 μM fluorogenic peptide from p53 residues 379-382 [RHKK(Ac)AMC] in a base reaction buffer of 50 mM Tris-HCl at pH 8.0, 137 mM NaCl, 2.7 mM KCl, 1 mM MgCl2, and freshly added 1 mg/ml BSA and 1% DMSO. Peptides were first dissolved in DMSO and then added to the reaction mixture with the enzyme using acoustic technique, enough to reach the desired concentration for that assay point. Peptide concentrations were calculated based on mass of lyophilized peptide and its molecular weight. The substrate was then added and incubated for 1 hour at 30 °C in a sealed container. After the incubation, developer was added to stop the reaction and develop color. Kinetic measurements were then performed for 20 min with Envision with 5 min intervals (Ex/Em = 360/460 nm). The endpoint after plateau was taken for IC50 measurement.
(§2) In cases where duplicate measures are used, average data is reported in the main text or Supplementary Tables.

HDAC2 [1] = target: T2, HDAC2 (Homo sapiens, UniProt Q92769); assay: Initial HDAC2 IC50 estimate (BPS Biosciences HDAC fluorogenic assay kit); format: biochemical; settings: Supplementary Dataset 2; read-out: HDAC2 activity (initial activity)
T2 construct: purchased Reaction Biology Corporation (assay run by the CRO)
T2 sequence (Q92769 whole entry): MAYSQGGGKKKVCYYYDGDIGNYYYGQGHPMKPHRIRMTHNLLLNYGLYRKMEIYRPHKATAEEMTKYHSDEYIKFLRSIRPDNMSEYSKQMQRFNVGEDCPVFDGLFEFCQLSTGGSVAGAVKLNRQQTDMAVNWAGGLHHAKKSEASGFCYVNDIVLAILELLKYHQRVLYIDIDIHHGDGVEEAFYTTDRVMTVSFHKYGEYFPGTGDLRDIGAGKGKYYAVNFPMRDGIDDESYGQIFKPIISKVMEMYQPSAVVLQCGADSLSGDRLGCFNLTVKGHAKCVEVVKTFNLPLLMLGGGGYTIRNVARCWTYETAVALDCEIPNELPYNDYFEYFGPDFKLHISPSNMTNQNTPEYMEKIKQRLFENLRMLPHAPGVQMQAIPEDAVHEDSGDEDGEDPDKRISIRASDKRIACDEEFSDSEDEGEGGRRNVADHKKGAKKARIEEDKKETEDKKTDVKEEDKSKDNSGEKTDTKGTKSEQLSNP
Method in brief: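 Inhibition measured by kit-based fluorogenic HDAC activity assays, with each point in duplicate or triplicate. Values come from a full 1 µM–100 pM series (1:10 steps) or are range estimates from just 20 nM and 200 nM.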

HDAC6 [2] = target: T3, HDAC6 (Homo sapiens, UniProt Q9UBN7); assay: HDAC6 inhibition, full IC50 measurement (Reaction Biology; fluorogenic p53 peptide RHKK(Ac)AMC); format: biochemical; settings: for HDAC6 activity raw data (signal): single trial
T3 construct: purchased Reaction Biology Corporation (assay run by the CRO)
T3 sequence (Q9UBN7 1-1215): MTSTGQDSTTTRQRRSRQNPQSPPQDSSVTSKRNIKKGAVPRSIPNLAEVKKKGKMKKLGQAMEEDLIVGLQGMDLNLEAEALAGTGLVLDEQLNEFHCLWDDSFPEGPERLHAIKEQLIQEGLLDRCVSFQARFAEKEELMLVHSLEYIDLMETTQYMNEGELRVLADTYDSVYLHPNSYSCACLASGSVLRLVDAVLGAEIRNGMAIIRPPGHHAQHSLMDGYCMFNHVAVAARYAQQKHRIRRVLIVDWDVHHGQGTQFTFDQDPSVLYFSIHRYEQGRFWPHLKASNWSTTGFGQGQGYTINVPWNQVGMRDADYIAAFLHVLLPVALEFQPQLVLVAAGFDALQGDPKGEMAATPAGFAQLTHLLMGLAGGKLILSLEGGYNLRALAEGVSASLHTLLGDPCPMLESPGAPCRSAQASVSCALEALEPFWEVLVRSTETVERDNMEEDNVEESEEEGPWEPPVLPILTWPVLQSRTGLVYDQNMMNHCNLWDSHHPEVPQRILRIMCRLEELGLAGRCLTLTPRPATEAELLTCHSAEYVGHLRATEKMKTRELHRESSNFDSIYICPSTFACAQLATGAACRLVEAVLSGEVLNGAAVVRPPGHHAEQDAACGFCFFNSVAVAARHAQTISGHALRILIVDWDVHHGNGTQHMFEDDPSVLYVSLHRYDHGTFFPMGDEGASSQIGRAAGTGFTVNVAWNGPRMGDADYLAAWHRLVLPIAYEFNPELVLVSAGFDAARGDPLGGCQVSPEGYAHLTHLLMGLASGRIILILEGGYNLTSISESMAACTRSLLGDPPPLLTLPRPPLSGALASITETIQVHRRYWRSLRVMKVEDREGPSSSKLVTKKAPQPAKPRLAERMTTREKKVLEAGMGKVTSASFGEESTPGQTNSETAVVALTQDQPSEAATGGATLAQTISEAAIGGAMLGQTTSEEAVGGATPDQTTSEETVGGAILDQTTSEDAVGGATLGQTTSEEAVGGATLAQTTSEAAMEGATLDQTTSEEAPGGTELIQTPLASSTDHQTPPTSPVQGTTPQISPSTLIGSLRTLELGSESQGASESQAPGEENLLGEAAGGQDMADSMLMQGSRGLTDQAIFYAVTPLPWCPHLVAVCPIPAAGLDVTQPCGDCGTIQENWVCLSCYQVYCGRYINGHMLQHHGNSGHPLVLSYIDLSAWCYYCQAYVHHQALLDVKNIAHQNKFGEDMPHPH
Method in brief: (§3)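 Inhibitory peptides were acoustically dispensed with enzyme, then substrate added; 1 h at 30 °C. Developer stopped reaction; plateau endpoint fluorescence (360/460 nm) gave IC50.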

HDAC2 [3] = target: T2, HDAC2; assay: HDAC2 inhibition, full IC50 measurement (Reaction Biology; fluorogenic p53 peptide RHKK(Ac)AMC); format: biochemical; settings: for HDAC2 activity raw data (signal): single trial
Method in brief: as §3

HDAC3 = target: T4, HDAC3 (Homo sapiens, UniProt O15379); assay: HDAC3 inhibition, full IC50 measurement (Reaction Biology; fluorogenic p53 peptide RHKK(Ac)AMC); format: biochemical; settings: for HDAC3 activity raw data (signal): single trial
T4 construct: purchased Reaction Biology Corporation (assay run by the CRO)
T4 sequence (O15379 whole entry): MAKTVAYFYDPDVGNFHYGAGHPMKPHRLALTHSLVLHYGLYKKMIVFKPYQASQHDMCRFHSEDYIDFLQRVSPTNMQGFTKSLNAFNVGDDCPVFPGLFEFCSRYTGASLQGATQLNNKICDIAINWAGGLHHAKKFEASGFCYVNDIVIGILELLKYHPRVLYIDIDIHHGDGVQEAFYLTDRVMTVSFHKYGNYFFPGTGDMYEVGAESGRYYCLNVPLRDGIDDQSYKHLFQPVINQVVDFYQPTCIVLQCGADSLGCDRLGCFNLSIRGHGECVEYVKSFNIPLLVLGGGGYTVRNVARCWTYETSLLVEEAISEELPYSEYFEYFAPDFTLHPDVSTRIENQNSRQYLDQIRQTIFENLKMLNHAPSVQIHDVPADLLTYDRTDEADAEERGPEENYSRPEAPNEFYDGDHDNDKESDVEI
T4 sequence (Q9Y618 395-489 partner limits assumed): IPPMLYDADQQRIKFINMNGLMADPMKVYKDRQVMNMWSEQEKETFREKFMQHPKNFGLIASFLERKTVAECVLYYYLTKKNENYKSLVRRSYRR
Procedure: as §1, §2

HDAC1 [4] = target: T5, HDAC1 (Homo sapiens, UniProt Q13547); assay: HDAC1 inhibition, full IC50 measurement (Reaction Biology; fluorogenic p53 peptide RHKK(Ac)AMC); format: biochemical; settings: Supp. Table 1
T5 construct: purchased Reaction Biology Corporation (assay run by the CRO)
T5 sequence (Q13547 whole entry): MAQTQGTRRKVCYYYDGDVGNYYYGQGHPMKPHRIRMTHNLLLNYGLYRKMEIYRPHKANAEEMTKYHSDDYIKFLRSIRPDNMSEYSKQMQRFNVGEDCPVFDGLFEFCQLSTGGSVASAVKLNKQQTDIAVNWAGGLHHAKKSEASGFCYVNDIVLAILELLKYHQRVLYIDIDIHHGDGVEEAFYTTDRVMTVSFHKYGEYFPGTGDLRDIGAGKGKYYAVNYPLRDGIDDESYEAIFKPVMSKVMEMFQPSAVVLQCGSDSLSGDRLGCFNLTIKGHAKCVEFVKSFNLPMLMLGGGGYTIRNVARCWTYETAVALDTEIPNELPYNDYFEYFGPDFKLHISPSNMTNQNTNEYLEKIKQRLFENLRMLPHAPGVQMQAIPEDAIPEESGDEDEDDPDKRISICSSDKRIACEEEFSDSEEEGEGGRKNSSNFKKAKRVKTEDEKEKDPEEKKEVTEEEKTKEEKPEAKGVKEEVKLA
Procedure: as §1, §2

HDAC1 [5] = target: T5, HDAC1; settings: Supp. Table 1; cited from earlier work
HDAC6 [6] = settings: cited from earlier work
HDAC4 = target: T6, HDAC4 (Homo sapiens, UniProt P56524); settings: Supp. Table 1; cited from earlier work
T6 construct: purchased BPS Biosciences
T6 sequence (P56524 whole entry): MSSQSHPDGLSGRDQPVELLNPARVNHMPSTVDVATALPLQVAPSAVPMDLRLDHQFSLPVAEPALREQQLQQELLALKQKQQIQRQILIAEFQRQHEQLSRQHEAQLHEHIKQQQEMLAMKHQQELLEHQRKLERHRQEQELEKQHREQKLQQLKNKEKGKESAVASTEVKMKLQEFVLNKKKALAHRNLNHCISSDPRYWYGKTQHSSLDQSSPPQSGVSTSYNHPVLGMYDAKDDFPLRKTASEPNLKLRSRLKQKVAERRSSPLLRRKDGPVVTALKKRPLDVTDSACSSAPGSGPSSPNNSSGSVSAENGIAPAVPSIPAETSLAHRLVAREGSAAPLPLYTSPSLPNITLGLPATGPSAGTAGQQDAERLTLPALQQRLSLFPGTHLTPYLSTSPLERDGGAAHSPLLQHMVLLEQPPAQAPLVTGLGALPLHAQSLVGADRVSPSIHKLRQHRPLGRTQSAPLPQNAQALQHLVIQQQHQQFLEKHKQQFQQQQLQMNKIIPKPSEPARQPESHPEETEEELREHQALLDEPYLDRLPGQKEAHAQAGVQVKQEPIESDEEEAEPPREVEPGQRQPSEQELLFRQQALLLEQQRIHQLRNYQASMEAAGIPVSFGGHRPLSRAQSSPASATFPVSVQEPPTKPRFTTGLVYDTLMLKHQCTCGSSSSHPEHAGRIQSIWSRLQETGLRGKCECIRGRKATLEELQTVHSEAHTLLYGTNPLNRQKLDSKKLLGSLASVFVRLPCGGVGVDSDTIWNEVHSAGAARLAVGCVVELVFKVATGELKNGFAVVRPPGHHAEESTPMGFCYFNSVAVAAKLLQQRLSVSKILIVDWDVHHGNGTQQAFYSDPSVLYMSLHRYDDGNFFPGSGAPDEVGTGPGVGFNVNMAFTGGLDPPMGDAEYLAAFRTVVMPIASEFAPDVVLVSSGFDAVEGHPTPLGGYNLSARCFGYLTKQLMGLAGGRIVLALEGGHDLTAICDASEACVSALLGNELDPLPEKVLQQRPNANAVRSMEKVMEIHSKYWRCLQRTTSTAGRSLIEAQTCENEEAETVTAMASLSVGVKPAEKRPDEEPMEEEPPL

Molecule `N=C(N)NCCC[C@@H]1NC(=O)[C@@H](CCCNC(=N)N)NC(=O)[C@H]2CCCN2C(=O)[C@@H](Cc2c[nH]cn2)NC(=O)[C@H](Cc2ccc(O)cc2)NC(=O)[C@H](CCCCCS)NC(=O)[C@H](CCc2ccccc2)NC(=O)[C@@H](CCC(N)=O)NC(=O)[C@H](CC(=O)O)NC1=O` [des3.3.0, SHA-Tyr-dHis-dPro-dArg- Arg-Asp-dGln-C27] (HELM PEPTIDE1{D.[dQ].[O=C([C@H](CCc1ccccc1)N[*:1])[*:2]].[O=C([C@H](CCCCCS)N[*:1])[*:2]].Y.[dH].[dP].[dR].R}$PEPTIDE1,PEPTIDE1,1:R1-9:R2$$$V2.0) has an IC50 (HDAC8) of 244 nM, an IC50 (HDAC2 [1]) of 10 to 100 nM and an IC50 (HDAC6 [2]; figure legends, Supp. Tables 1 and 8, read-out: HDAC6 IC50) of 11.6 nM. For the same molecule, the IC50 (HDAC2 [3]; figure legends, Supp. Table 1, read-out: HDAC2 IC50) was 9.1 nM, the IC50 (HDAC3; Supp. Table 1) was 6.4 nM and the IC50 (HDAC1 [4]) was 4.2 nM.
In the case of Cyl-2, the IC50 (HDAC1 [5]) is listed as 0.7 ± 0.45 nM and the IC50 (HDAC6 [6]; Supp. Table 1) is listed as 40000 nM.
For `N=C(N)NCCC[C@H]1NC(=O)[C@H]2CCCN2C(=O)[C@@H](Cc2c[nH]cn2)NC(=O)[C@H](Cc2ccc(O)cc2)NC(=O)[C@H](CCCCCS)NC(=O)[C@H](CCc2ccccc2)NC(=O)[C@H](CCCCN)NC1=O` [des3.2.5, SHA-Tyr-dHis-dPro-dArg-Lys-C27] (HELM PEPTIDE1{K.[O=C([C@H](CCc1ccccc1)N[*:1])[*:2]].[O=C([C@H](CCCCCS)N[*:1])[*:2]].Y.[dH].[dP].[dR]}$PEPTIDE1,PEPTIDE1,1:R1-7:R2$$$V2.0), the IC50 (HDAC2 [1]) was 95 nM, the “HDAC6 activity raw data (signal)” value (HDAC6 [2]; Conc. 1.00E-04 M) was -6596 and the “HDAC6 activity raw data (signal)” value (HDAC6 [2]; Conc. 1.11E-05 M) was -4177. For the same molecule, the “HDAC6 activity raw data (signal)” value (HDAC6 [2]; Conc. 1.23E-06 M) was 2489, the “HDAC6 activity raw data (signal)” value (HDAC6 [2]; Conc. 1.37E-07 M) was 40408 and the “HDAC6 activity raw data (signal)” value (HDAC6 [2]; Conc. 1.52E-08 M) was 187931. The “HDAC6 activity raw data (signal)” value (HDAC6 [2]; Conc. 3.33E-05 M) was -7167, the “HDAC6 activity raw data (signal)” value (HDAC6 [2]; Conc. 3.70E-06 M) was 1736 and the “HDAC6 activity raw data (signal)” value (HDAC6 [2]; Conc. 4.12E-07 M) was 17454. For the same molecule, the “HDAC6 activity raw data (signal)” value (HDAC6 [2]; Conc. 4.57E-08 M) was 101146, the “HDAC6 activity raw data (signal)” value (HDAC6 [2]; Conc. 5.08E-09 M) was 300973 and the “2-Selectivity: fold potency for HDAC2 over HDAC6” value (HDAC2 [3]) was 0.40 fold. The “HDAC2 activity raw data (signal)” value (HDAC2 [3]; Conc. 1.00E-04 M) was -10024, the “HDAC2 activity raw data (signal)” value (HDAC2 [3]; Conc. 1.11E-05 M) was -3664 and the “HDAC2 activity raw data (signal)” value (HDAC2 [3]; Conc. 1.23E-06 M) was 23341. For the same molecule, the “HDAC2 activity raw data (signal)” value (HDAC2 [3]; Conc. 1.37E-07 M) was 186535, the “HDAC2 activity raw data (signal)” value (HDAC2 [3]; Conc. 1.52E-08 M) was 378556 and the “HDAC2 activity raw data (signal)” value (HDAC2 [3]; Conc. 3.33E-05 M) was -4061. For the same molecule, the “HDAC2 activity raw data (signal)” value (HDAC2 [3]; Conc. 3.70E-06 M) was 7985, the “HDAC2 activity raw data (signal)” value (HDAC2 [3]; Conc. 4.12E-07 M) was 87059 and the “HDAC2 activity raw data (signal)” value (HDAC2 [3]; Conc. 4.57E-08 M) was 320609. The “HDAC2 activity raw data (signal)” value (HDAC2 [3]; Conc. 5.08E-09 M) was 410566, the “HDAC3 activity raw data (signal)” value (HDAC3; Conc. 1.00E-04 M) was -14418 and the “HDAC3 activity raw data (signal)” value (HDAC3; Conc. 1.11E-05 M) was 6191. The “HDAC3 activity raw data (signal)” value (HDAC3; Conc. 1.23E-06 M) was 36941, the “HDAC3 activity raw data (signal)” value (HDAC3; Conc. 1.37E-07 M) was 210610 and the “HDAC3 activity raw data (signal)” value (HDAC3; Conc. 1.52E-08 M) was 383928. The “HDAC3 activity raw data (signal)” value (HDAC3; Conc. 3.33E-05 M) was -3999, the “HDAC3 activity raw data (signal)” value (HDAC3; Conc. 3.70E-06 M) was 13003 and the “HDAC3 activity raw data (signal)” value (HDAC3; Conc. 4.12E-07 M) was 93966. For the same molecule, the “HDAC3 activity raw data (signal)” value (HDAC3; Conc. 4.57E-08 M) was 285917 and the “HDAC3 activity raw data (signal)” value (HDAC3; Conc. 5.08E-09 M) was 409923.
For Trapoxin B, the IC50 (HDAC6 [6]; Supp. Table 1) is given as 360 ± 160 nM and the IC50 (HDAC4) is given as 0.3 ± 0.03 nM.
For `C/C=C1\NC(=O)[C@H]2CSSCC/C=C/[C@H](CC(=O)N[C@H](C(C)C)C(=O)N2)OC(=O)[C@H](C(C)C)NC1=O` [Romidepsin], the IC50 (HDAC6 [6]) is given as […] and the IC50 (HDAC4) is given as 25 ± 7.3 nM.
